Positions of bridges follow the written chain, without caps; N, C: chain ends. Non-standard residues stand in square brackets, D forms with d. Residues, ends and D or L forms follow the SMILES beside them. ξ: configuration not given here. 2Nal = N[C@@H](Cc1ccc2ccccc2c1)C(=O)O; NMeIle(3ξ) = CCC(C)[C@H](NC)C(=O)O; Cit = NC(=O)NCCC[C@H](N)C(=O)O; NMeD = CN[C@@H](CC(=O)O)C(=O)O; NMeN = CN[C@@H](CC(N)=O)C(=O)O; NMeL = CN[C@@H](CC(C)C)C(=O)O; Ahp(2) = CCCCC[C@H](N)C(=O)O; NMeNle = CCCC[C@H](NC)C(=O)O; NHexGly = CCCCCCNCC(=O)O; Nle = CCCC[C@H](N)C(=O)O
Target: T1, mouse VISTA (mVISTA) (Mus musculus, UniProt Q9D659)
T1 construct: expressed in transfected cells; host or cells: Human embryonic kidney 293T cells
T1 sequence (Q9D659 33-308): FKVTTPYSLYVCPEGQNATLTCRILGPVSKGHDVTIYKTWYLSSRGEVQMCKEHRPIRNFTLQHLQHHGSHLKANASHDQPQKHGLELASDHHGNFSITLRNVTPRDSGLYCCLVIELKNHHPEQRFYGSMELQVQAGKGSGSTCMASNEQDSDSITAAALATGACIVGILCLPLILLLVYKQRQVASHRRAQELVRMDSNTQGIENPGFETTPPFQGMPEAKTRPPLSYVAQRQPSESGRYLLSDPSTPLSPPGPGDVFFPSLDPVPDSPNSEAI
Test: Cell-Based Binding High-Content Assay For mVISTA (HC CBA mVISTA)
Conditions: cell-based binding high-content assay, mVISTA; the 15th table; read-out: HC CBA mVISTA IC50
Outline: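 mVISTA-293T, 4,000 cells/well; cpd ± washout step; biotin-peptide 2 nM final, 30 min RT; SA-Alexa 647 30 min; formaldehyde/Hoechst fix; HCS imaging; 4PL IC50.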

SMILES | IC50
CCCCCCN1CC(=O)N[C@@H](Cc2ccc(O)cc2)C(=O)N[C@@H](CCCC)C(=O)N[C@@H](CC(N)=O)C(=O)N[C@@H](CCCNC(=N)N)C(=O)N(C)[C@@H](C(C)CC)C(=O)N[C@@H](CCCCC)C(=O)N2CCC[C@H]2C(=O)N[C@@H](C(C)C)C(=O)N[C@@H](CC(=O)O)C(=O)N[C@H](C(=O)NCC(=O)O)CSCC(=O)N[C@@H](Cc2ccc3ccccc3c2)C(=O)N[C@@H](Cc2c[nH]c3ccccc23)C(=O)N[C@@H](CC(=O)O)C1=O (stereo partly drawn) [compound 1237] ({CH2CO}-[2Nal]WD[NHexGly]Y[Nle]NR[NMeIle(3ξ)][Ahp(2)]PVDCG-OH; thioether N-14) | 9.1 nM
CCCCCCN1CC(=O)N[C@@H](Cc2ccc(O)cc2)C(=O)N[C@@H](CCCC)C(=O)N[C@@H](CC(N)=O)C(=O)N[C@@H](CCCNC(=N)N)C(=O)N(C)[C@@H](CC(N)=O)C(=O)N[C@@H](CCCCC)C(=O)N2CCC[C@H]2C(=O)N[C@@H](C(C)C)C(=O)N[C@@H](CC(=O)O)C(=O)N[C@H](C(=O)NCC(=O)O)CSCC(=O)N[C@@H](Cc2ccc3ccccc3c2)C(=O)N[C@@H](Cc2c[nH]c3ccccc23)C(=O)N[C@@H](CC(=O)O)C1=O [compound 1241] ({CH2CO}-[2Nal]WD[NHexGly]Y[Nle]NR[NMeN][Ahp(2)]PVDCG-OH; thioether N-14) | 35.1 nM
CCCCCCN1CC(=O)N[C@@H](Cc2ccc(O)cc2)C(=O)N[C@@H](CCCC)C(=O)N[C@@H](CC(=O)O)C(=O)N[C@@H](CCCNC(N)=O)C(=O)N(C)[C@@H](CCCC)C(=O)N[C@@H](CCCCC)C(=O)N2CCC[C@H]2C(=O)N[C@@H](C(C)C)C(=O)N[C@@H](CC(=O)O)C(=O)N[C@H](C(=O)N[C@@H](CC(=O)O)C(N)=O)CSCC(=O)N[C@@H](Cc2ccc3ccccc3c2)C(=O)N[C@@H](Cc2c[nH]c3ccccc23)C(=O)N[C@@H](CC(=O)O)C1=O [compound 1242] ({CH2CO}-[2Nal]WD[NHexGly]Y[Nle]D[Cit][NMeNle][Ahp(2)]PVDCD-NH2; thioether N-14) | 8.9 nM

Continued by falling IC50, values first:

IC50 | SMILES
25.2 nM | CCCCCCN1CC(=O)N[C@@H](Cc2ccc(O)cc2)C(=O)N[C@@H](CCCC)C(=O)N[C@@H](CC(N)=O)C(=O)N[C@@H](CCCNC(=N)N)C(=O)N(C)[C@@H](CC(=O)O)C(=O)N[C@@H](CCCCC)C(=O)N2CCC[C@H]2C(=O)N[C@@H](C(C)C)C(=O)N[C@@H](CC(=O)O)C(=O)N[C@H](C(=O)NCC(=O)O)CSCC(=O)N[C@@H](Cc2ccc3ccccc3c2)C(=O)N[C@@H](Cc2c[nH]c3ccccc23)C(=O)N[C@@H](CC(=O)O)C1=O [compound 1238] ({CH2CO}-[2Nal]WD[NHexGly]Y[Nle]NR[NMeD][Ahp(2)]PVDCG-OH; thioether N-14)
14.4 nM | CCCCCCN1CC(=O)N[C@@H](Cc2ccc(O)cc2)C(=O)N[C@@H](CCCC)C(=O)N[C@@H](CC(N)=O)C(=O)N[C@@H](CCCNC(=N)N)C(=O)N(C)[C@@H](CC(C)C)C(=O)N[C@@H](CCCCC)C(=O)N2CCC[C@H]2C(=O)N[C@@H](C(C)C)C(=O)N[C@@H](CC(=O)O)C(=O)N[C@H](C(=O)N[C@@H](CO)C(=O)O)CSCC(=O)N[C@@H](Cc2ccc3ccccc3c2)C(=O)N[C@@H](Cc2c[nH]c3ccccc23)C(=O)N[C@@H](CC(=O)O)C1=O [compound 1240] ({CH2CO}-[2Nal]WD[NHexGly]Y[Nle]NR[NMeL][Ahp(2)]PVDCS-OH; thioether N-14)
3.2 nM | CCCCCCN1CC(=O)N[C@@H](Cc2ccc(O)cc2)C(=O)N[C@@H](CCCC)C(=O)N[C@@H](CC(N)=O)C(=O)N[C@@H](CCCNC(=N)N)C(=O)N(C)[C@@H](CC(C)C)C(=O)N[C@@H](CCCCC)C(=O)N2CCC[C@H]2C(=O)N[C@@H](C(C)C)C(=O)N[C@@H](CC(=O)O)C(=O)N[C@H](C(=O)NCC(=O)O)CSCC(=O)N[C@@H](Cc2ccc3ccccc3c2)C(=O)N[C@@H](Cc2c[nH]c3ccccc23)C(=O)N[C@@H](CC(=O)O)C1=O [compound 1239] ({CH2CO}-[2Nal]WD[NHexGly]Y[Nle]NR[NMeL][Ahp(2)]PVDCG-OH; thioether N-14)

Source: patent US20240218022A1, “ANTI-VISTA MACROCYCLIC PEPTIDES AND COMPOSITIONS” (BRISTOL-MYERS SQUIBB COMPANY, priority 2022, published 2024)
